Reference: patent US8852618B2, “Insecticidal mixture containing gamma-cyhalothrin” (Syngenta Limited, priority 2001, dated 2014)
Several values for one entry are separate records, joined by “and”; a condition that tells them apart may be missing. Identical values can stand only once. Like-named read-outs stand apart in the source and are kept apart here.

How the values were obtained:
Myzus persicae = test: Sprayed Chinese cabbage leaf disc aphid test, mortality after 3 days; conditions: in Brassica rapa, foliar, 72 h
Experimental: (§1) For Heliothis and Spodoptera testing cotton leaves were sprayed in a Berkhard Potter Tower, left to dry for 1 hour and then placed on the top of pots containing twenty 1st instar Heliothis virescens/Spodoptera littoralis larvae. These were stored in a test holding room at 25° C. for 3 days and the test species assessed for mortality. For aphid testing Leaf discs were cut from excised Chinese cabbage leaves and placed on agar in test pots. R2 Myzus persicae were transferred from the culture on radish cotyledons and left overnight. The dried cotyledons were removed, leaving approximately 20-25 aphids on each leaf disc. The pots were sprayed in a Berkhard Potter Tower. Once dry, ventilated lids were placed on the top. These were stored in a Weiss Room at 20° C. for 3 days and the test species assessed for mortality. All tests included a Synperonic NP8 control. […] Any increase in the expected amount of mortality may be attributed to synergism. This is calculated in the following way: Expected mortality from mixture=% mortality of mixture partner A+(100%−% mortality of A)*(% mortality of mixture partner B). The results are set out in Tables I-III.

Heliothis virescens = test: Sprayed cotton leaf test, mortality of 1st instar larvae after 3 days
Experimental: as §1

Spodoptera littoralis = test: as above; conditions: for Observed % mortality Other ai: 3 days
Experimental: as §1

[1] = read-out: Observed % mortality Gamma
[2] = Spodoptera littoralis, in Gossypium hirsutum, 72 h, read-out: Observed % mortality Gamma
[3] = read-out: Observed % mortality Other

With `CC1(C)[C@H](C(=O)O[C@H](C#N)c2cccc(Oc3ccccc3)c2)[C@@H]1/C=C(\Cl)C(F)(F)F` [Gamma, (S)-α-cyano-3-phenoxybenzyl (Z)-(1R,3R)-3-(2-chloro-3,3,3-trifluoro-1-propenyl)-2,2-dimethylcyclopropanecarboxylate] the mortality at 0.25 ppm (Myzus persicae; [1]) was 70%, the mortality at 0.5 ppm (Myzus persicae; [1]) was 69% and the mortality at 1 ppm (Myzus persicae; [1]) was 98%. The “Observed % mortality Gamma” value (Heliothis virescens; Gamma alone 0.25 ppm) was 28%, the “Observed % mortality Gamma” value (Heliothis virescens; Gamma alone 0.50 ppm) was 28% and the “Observed % mortality Gamma” value (Heliothis virescens; Gamma alone 1.00 ppm) was 28%. For the same molecule, the mortality at 0.25 ppm (Heliothis virescens; Heliothis virescens, in Gossypium hirsutum, 72 h, read-out: Observed % mortality Gamma, Gamma alone 0.25 ppm) was 32%, the mortality at 0.5 ppm (Heliothis virescens; Heliothis virescens, in Gossypium hirsutum, 72 h, read-out: Observed % mortality Gamma, Gamma alone 0.50 ppm) was 32% and the mortality at 1 ppm (Heliothis virescens; Heliothis virescens, in Gossypium hirsutum, 72 h, read-out: Observed % mortality Gamma, Gamma alone 1.00 ppm) was 46%. The mortality at 0.025 ppm (Spodoptera littoralis; [2]) was 0%, the mortality at 0.05 ppm (Spodoptera littoralis; [2]) was 25% and the mortality at 0.1 ppm (Spodoptera littoralis; [2]) was 90%.
In the case of `CN1COCN(Cc2cnc(Cl)s2)/C1=N\[N+](=O)[O-]` [Thiamethoxam, thiamethoxam], the mortality at 1.25 ppm (Myzus persicae; [3]) is reported as 70%, the mortality at 2.5 ppm (Myzus persicae; [3]) is reported as 92% and the mortality at 5 ppm (Myzus persicae; [3]) is reported as 94%.
`CC1(C)[C@H](C(=O)O[C@H](C#N)c2cccc(Oc3ccccc3)c2)[C@@H]1/C=C(\Cl)C(F)(F)F` (racemic) [Lambda-cyhalothrin, lambda-cyhalothrin] was tested, and the mortality at 0.125 ppm (Myzus persicae; [3]) was 10%, the mortality at 0.25 ppm (Myzus persicae; [3]) was 4% and the mortality at 0.5 ppm (Myzus persicae; [3]) was 14%. It also gave a mortality at 0.25 ppm (Heliothis virescens; Heliothis virescens, in Gossypium hirsutum, 72 h, read-out: Observed % mortality Other ai, other ai alone 0.25 ppm) of 46%, a mortality at 0.5 ppm (Heliothis virescens; Heliothis virescens, in Gossypium hirsutum, 72 h, read-out: Observed % mortality Other ai, other ai alone 0.50 ppm) of 50% and a mortality at 1 ppm (Heliothis virescens; Heliothis virescens, in Gossypium hirsutum, 72 h, read-out: Observed % mortality Other ai, other ai alone 1.00 ppm) of 46%. For the same molecule, the “Observed % mortality Other ai” value (Heliothis virescens; other ai alone 0.50 ppm) was 52% and the “Observed % mortality Other ai” value (Heliothis virescens; other ai alone 1.00 ppm) was 52%.
In the case of emamectin benzoate, the “Observed % mortality Other ai” value (Heliothis virescens; other ai alone 0.13 ppm) is reported as 97% and 96%, the “Observed % mortality Other ai” value (Heliothis virescens; other ai alone 0.25 ppm) is reported as 97% and 96% and 99% and the “Observed % mortality Other ai” value (Heliothis virescens; other ai alone 0.50 ppm) is reported as 96% and 99%. The “Observed % mortality Other ai” value (Spodoptera littoralis; other ai alone 0.0025 ppm) was 0%, the “Observed % mortality Other ai” value (Spodoptera littoralis; other ai alone 0.005 ppm) was 6% and the “Observed % mortality Other ai” value (Spodoptera littoralis; other ai alone 0.01 ppm) was 0%.
In the case of abamectin, the “Observed % mortality Other ai” value (Heliothis virescens; other ai alone 0.25 ppm) is reported as 0%, the “Observed % mortality Other ai” value (Heliothis virescens; other ai alone 0.50 ppm) is reported as 0% and the “Observed % mortality Other ai” value (Heliothis virescens; other ai alone 1.00 ppm) is reported as 0%.
With `CCOP(=S)(OCC)Oc1nc(Cl)c(Cl)cc1Cl` [Chlorpyrifos, chlorpyrifos] the mortality at 2.5 ppm (Heliothis virescens; Heliothis virescens, in Gossypium hirsutum, 72 h, read-out: Observed % mortality Other ai, other ai alone 2.50 ppm) was 36%, the mortality at 5 ppm (Heliothis virescens; Heliothis virescens, in Gossypium hirsutum, 72 h, read-out: Observed % mortality Other ai, other ai alone 5.00 ppm) was 29% and the mortality at 10 ppm (Heliothis virescens; Heliothis virescens, in Gossypium hirsutum, 72 h, read-out: Observed % mortality Other ai, other ai alone 10.00 ppm) was 44%.
In the case of `COC(=O)N(C(=O)N1CO[C@@]2(C(=O)OC)Cc3cc(Cl)ccc3C2=N1)c1ccc(OC(F)(F)F)cc1` [Indoxacarb], the “Observed % mortality Other ai” value (Heliothis virescens; other ai alone 0.20 ppm) is reported as 26% and 22% and the “Observed % mortality Other ai” value (Heliothis virescens; other ai alone 0.80 ppm) is reported as 26% and 46%.
